pIC50: −log10 of the molar value. ≈ marks a conversion by molar mass, not a printed value. Like-named read-outs stand apart in the source and are kept apart here.
Columns and labels:
[1] = tested on: platelet aggregation induced by arachidonic acid (AA); assay: Antiplatelet assay, arachidonic acid-induced aggregation; assay type: cell-based, rabbit; conditions: for pIC50 / Percent aggregation, AA: AA 100 μM
Protocol: (§1) c. Antiplatelet assay. Blood, collected from the marginal ear vein of rabbits was mixed with EDTA to a final concentration of 6 mM and centrifuged at 90 g for 10 mm at room temperature to obtain platelet-rich plasma. The latter was further centrifuged at 500 g for 10 mm and the platelets were washed with Tyrode's solution without EDTA. After centrifugation at the same conditions, the platelets were suspended in Tyrode's solution with the following compositions (mM): NaCl (136.8), KCl (2.8), NaNCO3(11.9), MgCl2(1.1), NaH2PO4(0.33), CaCl2(1.0), and glucose (11.2). Platelet numbers were determined with a Coulter Counter (Model ZM) and adjusted to 4.5×10^8 platelets/ml.
(§2) Aggregation was measured by the turbidimetric method [O'brien, J. R. J. Clin. Pathol. 1962, 15,452] with a dual-channel Lumi aggregometer (Model 1020, Payton, Canada). All glass ware was siliconized. Test compounds were added one minute before the addition of the aggregation inducer and the platelet suspension was stirred at 900 rpm. The percentage of aggregation was calculated as previously described [Teng, C. M.; Chen, W. Y.; Ko, W. C.; Ouyang, C. Biochem. Biophys. Acta. 1987, 924, 375].

[2] = tested on: epidermoid carcinoma of the nasopharynx (KB); assay: In vitro cytotoxicity, KB; conditions: Homo sapiens; for IC50: 96 h, read-out: ED50 KB; for inhibition at 20 µg/mL: read-out: Inhibition at highest test concentration (in brackets), KB
[3] = tested on: human ovarian cancer (1A9); assay: In vitro cytotoxicity, 1A9; conditions: 96 h, read-out: ED50 1A9
[4] = tested on: bone (HOS); assay: In vitro cytotoxicity, HOS; conditions: Homo sapiens; for IC50: 96 h, read-out: ED50 HOS; for inhibition at 20 µg/mL: read-out: Inhibition at highest test concentration (in brackets), HOS
[5] = tested on: prostate cancer (PC3); assay: In vitro cytotoxicity, PC3; conditions: Homo sapiens; for IC50: 96 h, read-out: ED50 PC3; for inhibition at 20 µg/mL: read-out: Inhibition at highest test concentration (in brackets), PC3
[6] = tested on: ileocecal carcinoma (HCT-8); assay: In vitro cytotoxicity, HCT-8; conditions: Homo sapiens; for IC50: HCT-8, 96 h, read-out: ED50 HCT-8; for inhibition at 20 µg/mL: HCT-8, read-out: Inhibition at highest test concentration (in brackets), HCT-8
[7] = tested on: lung carcinoma (A-549); assay: In vitro cytotoxicity, A-549; conditions: Homo sapiens; for IC50: A549, 96 h, read-out: ED50 A-549; for inhibition at 20 µg/mL: A549, read-out: Inhibition at highest test concentration (in brackets), A-549
[8] = tested on: breast cancer (MCF-7); assay: In vitro cytotoxicity, MCF-7; conditions: Homo sapiens; for IC50: MCF7, 96 h, read-out: ED50 MCF-7; for inhibition at 20 µg/mL: MCF7, read-out: Inhibition at highest test concentration (in brackets), MCF-7
[9] = tested on: P-gp-expressing epidermoid carcinoma of the nasopharynx (KB-VIN); assay: In vitro cytotoxicity, KB-VIN; conditions: Homo sapiens, KBVIN; for IC50: 96 h, read-out: ED50 KB-VIN
[10] = tested on: melanoma (SKMEL-2); assay: In vitro cytotoxicity, SKMEL-2; conditions: for IC50 / inhibition at 20 µg/mL: Homo sapiens; for IC50: SK-MEL-2, 96 h, read-out: ED50 SKMEL-2; for Inhibition value of plateau-dose response (in brackets), SKMEL-2: inhibition plateaus over broad dose range; for inhibition at 20 µg/mL: SK-MEL-2, read-out: Inhibition at highest test concentration (in brackets), SKMEL-2
[11] = tested on: bovine brain tubulin; assay: Tubulin polymerization assay (antimicrotubule assay); conditions: read-out: ITP (inhibition of tubulin polymerization) IC50; tubulin […] (12 μM), 26° C., 20 min
[12] = tested on: platelet aggregation induced by thrombin; assay: Antiplatelet assay, thrombin-induced aggregation; assay type: cell-based, rabbit; conditions: for Percent aggregation, thrombin: thrombin 0.1 U/ml
Protocol: as §1, §2

[13] = tested on: platelet aggregation induced by collagen; assay: Antiplatelet assay, collagen-induced aggregation; assay type: cell-based, rabbit
Protocol: as §1, §2

[14] = tested on: platelet aggregation induced by platelet-activating factor (PAF); assay: Antiplatelet assay, PAF-induced aggregation; assay type: cell-based, rabbit; conditions: for Percent aggregation, PAF: PAF 2 ng/ml
Protocol: as §1, §2

[15] = 37° C., 1 min preincubation, read-out: IC50, platelet aggregation induced by arachidonic acid (in vitro) (Table 6)
[16] = Oryctolagus cuniculus, Platelet, 37° C., 1 min preincubation, read-out: IC50, platelet aggregation induced by arachidonic acid (in vitro) (Table 6)

## 4-Ethoxycarbonylbutoxy-2-phenylquinazoline [Compound 73]
[1]; [15]
  pIC50: 3.76

## COc1ccccc1C1NC(=O)c2ccccc2N1 (racemic) [Compound 60, 2,3-Dihydro-2-(2′-methoxyphenyl)-4-quinazolinone]
[2]
  IC50: > 20 µg/mL
  inhibition at 20 µg/mL: 32%
[3]
  IC50: 14.7 µg/mL (≈ 57.8 µM)
[4]
  IC50: > 20 µg/mL
  inhibition at 20 µg/mL: 38%
[5]
  IC50: > 20 µg/mL
  inhibition at 20 µg/mL: 30%
[6]
  IC50: > 20 µg/mL
  inhibition at 20 µg/mL: 21%
[7]
  IC50: > 20 µg/mL
  inhibition at 20 µg/mL: 44%
[8]
  IC50: > 20 µg/mL
  inhibition at 20 µg/mL: 48%
[9]
  IC50: 10.2 µg/mL (≈ 40.1 µM)
[10]
  IC50: < 20 µg/mL
  Inhibition value of plateau-dose response (in brackets), SKMEL-2: 52%
[11]
  pIC50: < 4.40

## COc1ccc(C2NC(=O)c3ccccc3N2)cc1 (racemic) [Compound 62, 2,3-Dihydro-2-(4′-methoxyphenyl)-4-quinazolinone]
[2]
  IC50: > 20 µg/mL
  inhibition at 20 µg/mL: 14%
[3]
  IC50: 20 µg/mL (≈ 78.7 µM)
[4]
  IC50: > 20 µg/mL
  inhibition at 20 µg/mL: 13%
[5]
  IC50: > 20 µg/mL
  inhibition at 20 µg/mL: 14%
[6]
  IC50: > 20 µg/mL
  inhibition at 20 µg/mL: 19%
[7]
  IC50: > 20 µg/mL
  inhibition at 20 µg/mL: 34%
[8]
  IC50: > 20 µg/mL
  inhibition at 20 µg/mL: 44%
[9]
  IC50: > 20 µg/mL
[9]; read-out: Inhibition at highest test concentration (in brackets), KB-VIN
  inhibition at 20 µg/mL: 39%
[10]
  IC50: > 20 µg/mL
  inhibition at 20 µg/mL: 23%
[11]
  pIC50: < 4.40

## COc1cccc(C2NC(=O)c3ccccc3N2)c1OC (racemic) [Compound 63, 2,3-Dihydro-2-(2′,3′-dimethoxyphenyl)-4-quinazolinone]
[2]
  IC50: > 20 µg/mL
  inhibition at 20 µg/mL: 41%
[3]
  IC50: 11.4 µg/mL (≈ 40.1 µM)
[4]
  IC50: > 20 µg/mL
  inhibition at 20 µg/mL: 34%
[5]
  IC50: > 20 µg/mL
  inhibition at 20 µg/mL: 20%
[6]
  IC50: > 20 µg/mL
  inhibition at 20 µg/mL: 39%
[7]
  IC50: > 20 µg/mL
  inhibition at 20 µg/mL: 39%
[8]
  IC50: > 20 µg/mL
  inhibition at 20 µg/mL: 40%
[9]
  IC50: 8.6 µg/mL (≈ 30.2 µM)
[10]
  IC50: < 20 µg/mL
  Inhibition value of plateau-dose response (in brackets), SKMEL-2: 53%
[11]
  pIC50: < 4.40

## COc1ccc(C2NC(=O)c3ccccc3N2)c(OC)c1 (racemic) [Compound 64, 2,3-Dihydro-2-(2′,4′-dimethoxyphenyl)-4-quinazolinone]
[2]
  IC50: > 20 µg/mL
  inhibition at 20 µg/mL: 43%
[3]
  IC50: 12.5 µg/mL (≈ 44 µM)
[4]
  IC50: > 20 µg/mL
  inhibition at 20 µg/mL: 40%
[5]
  IC50: > 20 µg/mL
  inhibition at 20 µg/mL: 28%
[6]
  IC50: > 20 µg/mL
  inhibition at 20 µg/mL: 29%
[7]
  IC50: > 20 µg/mL
  inhibition at 20 µg/mL: 43%
[8]
  IC50: > 20 µg/mL
  inhibition at 20 µg/mL: 44%
[9]
  IC50: 7.6 µg/mL (≈ 26.7 µM)
[10]
  IC50: > 20 µg/mL
  inhibition at 20 µg/mL: 37%
[11]
  pIC50: < 4.40

## COc1ccc(C2NC(=O)c3ccccc3N2)cc1OC (racemic) [Compound 66, 2,3-Dihydro-2-(3′,4′-dimethoxyphenyl)-4-quinazolinone]
[2]
  IC50: > 20 µg/mL
  inhibition at 20 µg/mL: 28%
[3]
  IC50: 14.6 µg/mL (≈ 51.4 µM)
[4]
  IC50: > 20 µg/mL
  inhibition at 20 µg/mL: 24%
[5]
  IC50: > 20 µg/mL
  inhibition at 20 µg/mL: 30%
[6]
  IC50: > 20 µg/mL
  inhibition at 20 µg/mL: 25%
[7]
  IC50: > 20 µg/mL
  inhibition at 20 µg/mL: 41%
[8]
  IC50: 20 µg/mL (≈ 70.3 µM)
[9]
  IC50: 16 µg/mL (≈ 56.3 µM)
[10]
  IC50: > 20 µg/mL
  inhibition at 20 µg/mL: 24%
[11]
  pIC50: < 4.40

## CC(=O)Oc1ccccc1C(=O)O [Aspirin]
[1]; [16]
  pIC50: 4.70

## COc1nc(-c2ccccc2)nc2ccccc12 [Compound 69, 4-Methoxy-2-phenylquinazoline]
[12]; Table 5
  Inhibition of thrombin-induced platelet aggregation in words: poor inhibitors
[12]; compound 20 μg/ml
  Percent aggregation, thrombin: 88.1 ± 0.8(3) %
[12]; compound 50 μg/ml
  Percent aggregation, thrombin: 13.3 ± 5.3(3) %
[12]; compound 100 μg/ml, 37° C., 1 min preincubation
  Percent aggregation, thrombin: 2.8 ± 2.3(3) %
[1]; [16]
  pIC50: 5.14
[1]; Oryctolagus cuniculus, Platelet, read-out: IC50, AA-induced platelet aggregation (Table 5)
  pIC50: 5.14
[1]; Table 5
  Inhibition of AA-induced platelet aggregation in words: relatively stronger inhibitors
[1]; compound 0.5 μg/ml
  Percent aggregation, AA: 86.0 ± 1.2(4) %
[1]; compound 1 μg/ml
  Percent aggregation, AA: 65.0 ± 8.1(4) %
[1]; compound 2 μg/ml
  Percent aggregation, AA: 35.3 ± 14.9(4) %
[1]; compound 5 μg/ml
  Percent aggregation, AA: 15.0 ± 11.8(4) %
[1]; compound 10 μg/ml
  Percent aggregation, AA: 0.0 ± 0.0(4) %
[1]; compound 100 μg/ml
  Percent aggregation, AA: 0.0 ± 0.0(4) %
[13]; Oryctolagus cuniculus, Platelet, collagen 10 μg/ml, read-out: IC50, collagen-induced platelet aggregation (Table 5)
  pIC50: 5.07
[13]; Table 5
  Inhibition of collagen-induced platelet aggregation in words: relatively stronger inhibitors
[13]; compound 0.2 μg/ml, collagen 10 μg/ml
  Percent aggregation, collagen: 88.4 ± 1.9(4) %
[13]; compound 0.5 μg/ml, collagen 10 μg/ml
  Percent aggregation, collagen: 76.2 ± 3.7(4) %
[13]; compound 1 μg/ml, collagen 10 μg/ml
  Percent aggregation, collagen: 52.6 ± 7.5(4) %
[13]; compound 2 μg/ml, collagen 10 μg/ml
  Percent aggregation, collagen: 43.0 ± 6.4(4) %
[13]; compound 5 μg/ml, collagen 10 μg/ml
  Percent aggregation, collagen: 31.5 ± 6.4(4) %
[13]; compound 10 μg/ml, collagen 10 μg/ml
  Percent aggregation, collagen: 1.1 ± 0.9(4) %
[13]; compound 20 μg/ml, collagen 10 μg/ml
  Percent aggregation, collagen: 0.0 ± 0.0(4) %
[13]; compound 100 μg/ml, collagen 10 μg/ml
  Percent aggregation, collagen: 0.0 ± 0.0(4) %
[14]; Table 5
  Inhibition of PAF-induced platelet aggregation in words: poor inhibitors
[14]; compound 20 μg/ml
  Percent aggregation, PAF: 87.9 ± 1.8(4) %
[14]; compound 50 μg/ml
  Percent aggregation, PAF: 38.1 ± 8.3(4) %
[14]; compound 100 μg/ml
  Percent aggregation, PAF: 2.1 ± 1.8(4) %

## CCOC(=O)COc1nc(-c2ccccc2)nc2ccccc12 [Compound 71, 4-Ethoxycarbonylmethoxy-2-phenylquinazoline]
[1]; [16]
  pIC50: 4.57

## CCOC(=O)CCCOc1nc(-c2ccccc2)nc2ccccc12 [Compound 72, 4-Ethoxycarbonylpropoxy-2-phenylquinazoline]
[1]; [16]
  pIC50: 4.51

## CCOc1nc(-c2ccccc2OC)nc2ccccc12 [Compound 74, 4-Ethoxy-2-(2′-methoxyphenyl)quinazoline]
[1]; [16]
  pIC50: 3.67

## CCOc1nc(-c2cccc(OC)c2)nc2ccccc12 [Compound 75, 4-Ethoxy-2-(3′-methoxyphenyl)quinazoline]
[1]; [16]
  pIC50: 4.16

## CCOc1nc(-c2ccc(OC)cc2)nc2ccccc12 [Compound 76, 4-Ethoxy-2-(4′-methoxyphenyl)quinazoline]
[1]; [16]
  pIC50: 5.27

## Cn1c(-c2ccccc2)nc2ccccc2c1=O [Compound 77, N^3-methyl-2-phenyl-4-quinazolinone]
[1]; [16]
  pIC50: 3.74

## CCn1c(-c2ccccc2)nc2ccccc2c1=O [Compound 78, N^3-Ethyl-2-phenyl-4-quinazolinone]
[1]; [16]
  pIC50: 3.74

## COc1ccc2c(c1)c(CC(=O)O)c(C)n2C(=O)c1ccc(Cl)cc1 [Indomethacin]
[1]; [16]
  pIC50: 6.60

## N^3-Ethoxycarbonylmethoxy-2-phenyl-4-quinazolinone [Compound 79]
[1]; [15]
  pIC50: < 3.57
